Tests used:
Format in all cases: in vivo
[1] = system: Abca4+/+ (Rpe65 450Leu, pigmented, 129/SV×C57BL/6J) mice; assay: ERG rod b-wave amplitude recovery after photo-bleaching; conditions: 50 mg/kg i.p., 3 days after treatment
Protocol: Electroretinogram Determinations (ERG): Mice were dark-adapted overnight before all ERG experiments. To determine the acute effect of compounds under study, mice were given a single i.p. injection of […] Control (“untreated”) animals were injected with 25 uL of DMSO. Mice were anaesthetized with ketamine (80 mg/kg) and xylazine (5-10 mg/kg) and pupils were dilated with 1% phenylephrine and 1% cyclopentolate, followed by an exposure to 5000 lux bleaching light for 2 min.
The ERG was recorded from the cornea with a cotton wick saline electrodes for about 50 min immediately after bleaching. Subcutaneous 30 gauge needles on the forehead and trunk were used as reference and ground electrodes, respectively. The animals rested on a heater maintaining the body temperature at 37° C. The light stimulus was obtained from a ganzfeld stimulator having a stroboscope (PS33 Grass Instruments Inc., West Warwick, R.I.) removed from its housing and recessed above and behind the head of the mouse. The flash was diffused to cover the ganzfeld homogeneously. Maximum flash intensity was measured with a calibrated light meter (J16 Tektronics Instruments, Beaverton, Oreg.). Responses were averaged by a Macintosh computer-controlled data acquisition system (PowerLab, AD Instruments, Mountain View, Calif.) at a frequency of 0.1 Hz. […]
The same animals were subjected to ERG experiments according to exactly the same protocol 3 days later, except no (repeated) injection of compounds was performed.
Acute effects: In order to determine whether TDT and TDH have an effect on the visual cycle in vivo, the overnight dark-adapted Abca4^+/+ (Rpe65 450Leu, pigmented, 129/SV×C57BL/6J) mice received single (i.p.) injections of the two compounds at 50 mg/kg. […]
Results are averaged from three mice in each group with SD bars shown. Both isoprenoids delayed the recovery of dark-adapted visual responses to an extent similar to that of 13-RA as judged from dark-adapted ERG b-wave amplitudes recorded using dim light flashes delivered immediately before and at regular intervals after photo-bleaching.

[2] = system: Sprague Dawley rats; assay: 11-cis-retinal regeneration after bleaching in rats; conditions: for average inhibition of 11-cis-retinal regeneration: 50 mg/kg i.p. single injection, rats
Protocol: To establish whether recovery of the dark-adapted rod b-wave was retarded because of an effect on 11-cis-retinal synthesis we studied the effects of TDT on 11-cis-retinal regeneration in rats and mice. The 11-cis-retinal that is regenerated is essentially all bound to rhodopsin in rodents, so that measuring its level is equivalent to measuring the rhodopsin content. Initial experiments were performed on Sprague Dawley rats because similar experiments using 13-RA were previously carried out using these animals so that ready comparisons of potency and effectiveness can be made. […] Accordingly, in the current experiments, the rats were given single injections (i.p.) of TDT (TDH) (50 mg/kg in DMSO), 13-RA (50 mg/kg in DMSO), and DMSO alone. After injecting the analogs, the rats were dark adapted for 2 h, and then exposed to light that led to <10% of dark adapted 11-cis-retinal in these animals, compared to dark adapted controls (data not shown). After allowing the bleached rats to dark-adapt again for 30 min, the animals were sacrificed, and the regenerated 11-cis-retinal was determined as indicated in Methods. In these experiments, the amount of resynthesized 11-cis-retinal, the chromophore of rhodopsin, is measured by HPLC and compared to the amounts of all-trans-retinyl ester precursor.
These figures show results of HPLC analysis of extracted retinoids from drug treated rats. […] In FIG. 28A, the relative amounts of 11-cis-retinal-syn-oxime and all-trans-(cis)-retinyl esters are shown for the control (−13-RA) (top) and drug treated animals (bottom). In FIG. 28B, the corresponding data are shown for the TDT treated rats (top-control, bottom TDT treated). In this case, the ester pool in the drug treated rat is largely, if not exclusively, all-trans. […] Upon repetition of the experiments two further times the average inhibition values are as follows: 13-RA (78±2%), TDT (79±4%), and TDH (55±2%). These percent inhibition values are generated by comparing the integrated areas under the retinyl ester and 11-cis-retinal-syn-oxime peaks. (Materials and Methods).

[3] = system: Balb/c mice; assay: 11-cis-retinal regeneration after bleaching in mice
Protocol: Animal Studies: Protocols were approved by the Standing Committee on Animal Care of Harvard Medical School, the Institutional Animal Care and Use Committee of Columbia University and complied with guidelines set forth by The Association for Research in Vision and Ophthalmology. 7 week old male Balb/c albino mice and 7 week old male Sprague-Dawley rats were from Charles River Breeding Laboratories and were housed in 12:12 h light:dark cycle. 8-10 week old Abcr null mutant mice (129/SV×C57BL/6J) were generated as formerly described (12,20) and Abcr^−/− and Abcr^+/+ mice were raised under 12-hour on-off cyclic lighting with an in-cage illuminance of 30-50 lux. In Abcr^−/− and Abcr^+/+ mice, Rpe65 was 9 sequenced as reported previously.
Similar experiments with inhibitors were also performed in Balb/c mice. Here again inhibition is observed, but the effects are less pronounced than in rats, both with 13-RA and the isoprenoid antagonists. The inhibition values are as follows: 13-RA (33±4%), TDT (35±2%), and TDH (24±6%). It is noteworthy that in rats the 11-cis chromophore is regenerated considerably more slowly than in mice.

SMILES | effect on rod b-wave recovery [1] | average inhibition of 11-cis-retinal regeneration [2] | inhibition of 11-cis-retinal regeneration [3] | inhibitory effect on 11-cis-retinal regeneration ([2]; 50 mg/kg i.p., FIG. 28C)
CCCCCCCCCCC(=O)/C=C(\C)CC/C=C(\C)CCC=C(C)C [TDT, 13,17,21-Trimethyl-docosa-12,16,20-trien-11-one] | substantial effect | 79±4% | 35±2% | –
CCCCCCCCCCCCCCCCNC(=O)/C=C(\C)CC/C=C(\C)CCC=C(C)C [TDH, 3,7,11-Trimethyl-dodeca-2,6,10-trienoic acid hexadecylamide] | substantial effect | 55±2% | 24±6% | less pronounced than with TDT
CC1=C(/C=C/C(C)=C/C=C/C(C)=C\C(=O)O)C(C)(C)CCC1 [13-cis-retinoic acid, reference compound] | no sustained effect | 78±2% | 33±4% | –

— patent US7566808B2, “Management of ophthalmologic disorders, including macular degeneration” (President and Fellows of Harvard College, priority 2004, dated 2009)
